Assay results published in US20260256871A1, “COMPOSITIONS AND METHODS FOR TREATMENT OF SUBJECTS SUFFERING FROM A SARS-COV-2 INFECTION” (priority 2022, published 2026).
“Also recorded” adds a separate entry of the source. Counter-ions that a name gives are not always drawn. Like-named read-outs stand apart in the source and are kept apart here.

Tests used:
SARS-CoV2 [1] = assay type: cell-based; details: for viral load: antioxidants NAC and SFN; for inhibition of SARS-CoV2 replication in HBECs (viral copy number): camostat basolateral
16HBE cells = assay: Cytotoxicity, CytoTox 96 LDH release assay; details: for cytotoxicity (LDH release) at maximum concentration used in antiviral assays: 72 h, camostat 125 μM, HA 0.7%, BAPTA-AM 10 uM, allopurinol 400 μM, NAC 100 mM, SFN 10 μM, ivacaftor, PAAG at maximum; for toxicity values (percent of maximum toxicity): Allopurinol 400 uM, NAC 50 mM, SFN 5 uM, 72 hours
cells = details: due to the very low pH; cited from earlier work
SARS-CoV2 [2] = assay: Protection against SARS-CoV2 in Vero cells; assay type: cell-based

CC(C)(C)c1cc(C(C)(C)C)c(NC(=O)c2c[nH]c3ccccc3c2=O)cc1O [Ivacaftor, ivacaftor]
effect on SARS-CoV-2 replication (SARS-CoV2 [1]; ivacaftor basolateral, ≥10 μM, close to its maximum solubility): moderate effect | cytotoxicity (LDH release) at maximum concentration used in antiviral assays (16HBE cells): showed cytotoxicity

CC(=O)N[C@@H](CS)C(=O)O [NAC, N-Acetyl-L-cysteine]
viral load (SARS-CoV2 [1]): reduction in the viral load | cytotoxicity (LDH release) at maximum concentration used in antiviral assays (16HBE cells): neither allopurinol, NAC nor SFN showed cytotoxicity | toxicity values (percent of maximum toxicity) (16HBE cells): negative values of toxicity

C[S+]([O-])CCCCN=C=S (stereo not shown) [SFN, sulforaphane]
viral load (SARS-CoV2 [1]): reduction in the viral load | cytotoxicity (LDH release) at maximum concentration used in antiviral assays (16HBE cells): neither allopurinol, NAC nor SFN showed cytotoxicity | toxicity values (percent of maximum toxicity) (16HBE cells): negative values of toxicity

Oc1ncnc2[nH]ncc12 [allopurinol]
protection of HBECs from SARS-CoV2 infection (replication) (SARS-CoV2 [1]; allopurinol 400 uM, xanthine oxidase inhibition): significantly protected; also recorded: significantly blocks SARS-CoV2 replication | cytotoxicity (LDH release) at maximum concentration used in antiviral assays (16HBE cells): neither allopurinol, NAC nor SFN showed cytotoxicity | toxicity values (percent of maximum toxicity) (16HBE cells): negative values of toxicity

O=C1O[C@H]([C@@H](O)CO)C(O)=C1O [ascorbic acid]
cytotoxicity of component alone (without bicarbonate buffer) (cells): cytotoxic

O=C([O-])O.[Na+] [bicarbonate alone, sodium bicarbonate]
antiviral activity of ARINA-1 components (SARS-CoV2 [1]): did not show significant activity

CN(C)C(=O)COC(=O)Cc1ccc(OC(=O)c2ccc(NC(=N)N)cc2)cc1 [camostat mesylate]
inhibition of SARS-CoV2 replication in HBECs (viral copy number) (SARS-CoV2 [1]; vs DMSO vehicle, 72 h): dose-dependent manner | inhibition of SARS-CoV2 replication in HBECs (viral copy number) (SARS-CoV2 [1]; vs DMSO vehicle, 72 h, listed as Camostat): significantly inhibited | inhibition of SARS-CoV2 infection (SARS-CoV2 [1]; camostat mesylate basolateral, concentrations higher than 16.62 μM, vs DMSO vehicle, 72 h): ~100% | protection against SARS-CoV2 (SARS-CoV2 [2]): partially protective | cytotoxicity (LDH release) at maximum concentration used in antiviral assays (16HBE cells): not toxic

N[C@@H](CCC(=O)N[C@@H](CS)C(=O)NCC(=O)O)C(=O)O [glutathione]
cytotoxicity of component alone (without bicarbonate buffer) (cells): cytotoxic
